One test deals with T1, PLK1(h) (Homo sapiens, UniProt P53350).
T1 construct: purchased Reaction Biology Corp
Description: PLK1 kinase IC50, Reaction Biology IC50 Profiler Express, 33P-ATP radiometric. It is filed as biochemical. Conditions: enzymatic; ATP 10 μM, casein substrate.

The target of test [1] is T2, PLK1 (Homo sapiens, UniProt P53350).
T2 construct: purchased Reaction Biology Corp
The test can be described thus: Kinase panel screen (Kinase HotSpot), single dose 10 µM: PLK1. It is filed as biochemical. The following applies: duplicate, read-out: inhibitory activity against PLK1. The procedure: (§1) Assay protocol: In a final reaction volume of 25 μL, substrate[Casein], 1 μM, ATP 10 μM, PLK1(h) (5–10 mU) is incubated with 25 mM Tris pH 7.5, 0.02 mM EGTA, 0.66 mg/mL myelin basic protein, 10 mM Mg acetate, and [^33P-ATP] (specific activity approx. 500 cpm/pmol, concentration as required). The reaction is initiated by addition of the Mg-ATP mix. After incubation for 40 min at room temperature, the reaction is stopped by addition of 5 μL of a 3% phosphoric acid solution. […] The 30 selected protein kinases were ABL1, AKT1, ALK, Aurora A, AXL, AXL (R499C), BRAF (V599E), BTK, c-MER, c-MET, c-Src, CAMKK1, CDK1/cyclin A, EGFR, ERK1, FGFR3, FYN, IGF1R, JAK3, KDR/VEGFR2, LCK, LYN, MEK1, PKA, PLK1, PLK2, PLK3, PLK4/SAK, SYK, and TYRO3/SKY4.

The target of test [2] is T2, PLK1. On the set-up: method as in ref 18 (a number printed in a supplementary file, which may have a reference list of its own: not looked up in the article's list). Conditions: Table S1, Plk1, cited from earlier work; for Activity pIC50: pIC50 = −log IC50.
In a further test the test system is other protein kinases. The test can be described thus: Kinase panel screen (Kinase HotSpot), single dose 10 µM: other kinases of the 30-kinase panel. It is filed as biochemical. The procedure:
as §1

The target of a further test is T3, PLK3 (Homo sapiens, UniProt Q9H4B4).
T3 construct: purchased Reaction Biology Corp
T3 sequence (Q9H4B4 whole entry): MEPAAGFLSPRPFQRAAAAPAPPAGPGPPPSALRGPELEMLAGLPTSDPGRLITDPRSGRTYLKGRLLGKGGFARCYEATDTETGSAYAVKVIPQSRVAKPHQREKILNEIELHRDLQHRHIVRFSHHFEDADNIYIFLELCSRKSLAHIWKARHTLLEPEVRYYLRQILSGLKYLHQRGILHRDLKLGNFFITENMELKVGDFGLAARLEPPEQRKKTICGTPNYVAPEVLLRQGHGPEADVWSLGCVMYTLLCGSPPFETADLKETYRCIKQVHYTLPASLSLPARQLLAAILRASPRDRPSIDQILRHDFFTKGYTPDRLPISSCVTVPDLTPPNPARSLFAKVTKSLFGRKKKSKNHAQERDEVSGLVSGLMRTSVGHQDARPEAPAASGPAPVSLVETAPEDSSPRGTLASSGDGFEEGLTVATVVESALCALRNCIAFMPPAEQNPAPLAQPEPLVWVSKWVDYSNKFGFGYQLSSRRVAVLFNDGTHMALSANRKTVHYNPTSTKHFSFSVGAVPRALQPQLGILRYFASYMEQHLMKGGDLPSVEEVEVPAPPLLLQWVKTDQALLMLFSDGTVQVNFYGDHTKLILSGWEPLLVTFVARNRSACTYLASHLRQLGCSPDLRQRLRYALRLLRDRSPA
The test can be described thus: Kinase panel screen (Kinase HotSpot), single dose 10 µM: PLK3. It is filed as biochemical. As for the experimental part:
as §1

Another test addresses T4, PLK2 (Homo sapiens, UniProt Q9NYY3).
T4 construct: purchased Reaction Biology Corp
The test can be described thus: Kinase panel screen (Kinase HotSpot), single dose 10 µM: PLK2. It is filed as biochemical. As for the experimental part: as §1

Test [3] has as its target T2, PLK1. Conditions: in words; cited from earlier work.
Test [4] deals with T2, PLK1. Set-up: method as in ref 17 (a number printed in a supplementary file, which may have a reference list of its own: not looked up in the article's list). Conditions: Table S2, Plk1, cited from earlier work.

Structures are written as SMILES. Read-outs that look alike come from different tables or passages of the source.

As a reminder, the IC50 is the point on the concentration scale where inhibition reaches its midpoint.

T2 sequence (P53350 whole entry): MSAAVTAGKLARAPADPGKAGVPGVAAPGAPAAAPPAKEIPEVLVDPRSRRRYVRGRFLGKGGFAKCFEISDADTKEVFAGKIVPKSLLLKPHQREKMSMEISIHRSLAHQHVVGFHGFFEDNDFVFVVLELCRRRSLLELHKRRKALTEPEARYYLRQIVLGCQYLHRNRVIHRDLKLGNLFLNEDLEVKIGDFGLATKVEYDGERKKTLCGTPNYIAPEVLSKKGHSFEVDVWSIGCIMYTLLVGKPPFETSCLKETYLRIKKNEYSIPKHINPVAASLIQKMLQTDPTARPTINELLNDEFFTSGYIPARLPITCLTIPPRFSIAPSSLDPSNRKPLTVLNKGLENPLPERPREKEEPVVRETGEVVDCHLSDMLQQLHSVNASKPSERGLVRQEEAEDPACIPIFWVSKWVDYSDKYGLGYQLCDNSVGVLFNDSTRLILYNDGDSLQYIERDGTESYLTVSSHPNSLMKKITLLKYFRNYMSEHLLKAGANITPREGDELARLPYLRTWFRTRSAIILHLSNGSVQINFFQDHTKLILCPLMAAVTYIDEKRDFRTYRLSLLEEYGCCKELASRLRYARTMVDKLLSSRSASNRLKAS
T1 sequence (P53350 whole entry): as above
T4 sequence (Q9NYY3 whole entry): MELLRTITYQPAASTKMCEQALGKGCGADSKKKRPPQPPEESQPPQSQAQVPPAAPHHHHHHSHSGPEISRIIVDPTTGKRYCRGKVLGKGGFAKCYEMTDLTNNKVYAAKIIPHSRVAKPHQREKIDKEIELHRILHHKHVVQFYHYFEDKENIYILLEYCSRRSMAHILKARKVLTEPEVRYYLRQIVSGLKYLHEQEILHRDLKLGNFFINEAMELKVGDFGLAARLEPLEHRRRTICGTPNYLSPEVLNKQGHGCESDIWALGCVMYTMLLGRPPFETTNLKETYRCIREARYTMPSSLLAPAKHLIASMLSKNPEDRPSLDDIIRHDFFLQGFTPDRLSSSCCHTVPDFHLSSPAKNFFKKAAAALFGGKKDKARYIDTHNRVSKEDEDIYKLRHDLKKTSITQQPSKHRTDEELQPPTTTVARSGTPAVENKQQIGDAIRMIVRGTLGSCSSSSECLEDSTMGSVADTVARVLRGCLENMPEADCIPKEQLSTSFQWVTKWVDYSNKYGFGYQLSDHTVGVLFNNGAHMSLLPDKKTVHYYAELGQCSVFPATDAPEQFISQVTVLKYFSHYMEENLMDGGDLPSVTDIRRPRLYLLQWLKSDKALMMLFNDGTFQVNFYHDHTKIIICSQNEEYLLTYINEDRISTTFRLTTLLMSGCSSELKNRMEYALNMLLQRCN

The compound `NC(=O)c1nn(-c2ccnc(NC3CCOCC3)c2)cc1OCc1ccccc1` [Compound 8a] registered an IC50 at PLK1(h) greater than 10000 nM.
On the same count and under the same terms, under `NC(=O)c1nn(-c2ccnc(NC3CCNCC3)c2)cc1OCc1ccccc1` [Compound 9a] stands greater than 10000 nM.
On the same count and under the same terms, the figure for `NC(=O)c1nn(-c2ccnc(N[C@H]3CCNC3)c2)cc1OCc1ccccc1` [Compound 10a] is greater than 10000 nM; for `NC(=O)c1nn(-c2ccnc(Nc3ccccc3)c2)cc1OCc1ccccc1` [Compound 13a] it is 9890 nM.
The same measure, in the same setting: the figure for `NC(=O)c1nn(-c2ccnc(Nc3ccccc3)c2)cc1OCc1ccccc1C(F)(F)F` [Compound 13b] is 847 nM; for `COc1ccccc1Nc1cc(-n2cc(OCc3ccccc3)c(C(N)=O)n2)ccn1` [Compound 14a] it is 1020 nM.
In the case of `COc1ccccc1Nc1cc(-n2cc(OCc3ccccc3C(F)(F)F)c(C(N)=O)n2)ccn1` [Compound 14b], the IC50 at PLK1(h) came to 1310 nM.
With `NC(=O)c1nn(-c2ccnc(Nc3ccccc3)c2)cc1OCc1ccc(CO)cc1Cl` [Compound 15, 4-((2-chloro-4-(hydroxymethyl)benzyl)oxy)-1-(2-(phenylamino)pyridin-4-yl)-1H-pyrazole-3-carboxamide], on PLK1(h), the IC50 turned out to be 219 nM. In addition, the inhibition at 10 µM on PLK1 [1] was determined as 97%. In addition, at PLK1 [2], the half-inhibitory concentration (IC50) was 28 nM and the “Activity pIC50” value was 7.5528. Further, in the test with other protein kinases, the “activity against other protein kinases” value is “no significant activity”. Further, on PLK3, the “activity against PLK3” value is “no significant activity”. Further, on PLK2, the “activity against PLK2” value was “no significant activity”.
On PLK1(h), `COc1ccccc1Nc1cc(-n2cc(OCc3ccc(CO)cc3Cl)c(C(N)=O)n2)ccn1` [Compound 17, 4-((2-chloro-4-(hydroxymethyl)benzyl)oxy)-1-(2-((2-methoxyphenyl)amino)pyridin-4-yl)-1H-pyrazole-3-carboxamide] gave an IC50 of 312 nM. In addition, at PLK1 [2], the half-maximal inhibitory concentration (IC50) is 25 nM and the “Activity pIC50” value is recorded as 7.6021.
`CN1CCN(c2ccc(C(=O)Nc3n[nH]c4c3CN(C(=O)Cc3cccs3)C4)cc2)CC1` [PHA-680626]: on PLK1 [3], the “PLK1 IC50s” value is on record as “low nanomolar”.
As to `CCOC(=O)c1nn(-c2ccnc(F)c2)cc1O` [compound 3], on PLK1 [2], the IC50 was 430 nM and the “Activity pIC50” value is 6.3665.
With `O=Cc1n[nH]c2c1CCc1cnc(Nc3ccccc3)nc1-2` [compound 34], the IC50 on PLK1 [4] is 248 nM. Also, at PLK1 [4] (pIC50 = −log IC50), the “Activity pIC50” value was 6.6055.

The values above are taken from PMC8068361, “Design and Synthesis of a Novel PLK1 Inhibitor Scaffold Using a Hybridized 3D-QSAR Model” (International Journal of Molecular Sciences, 2021).
